{
  "source": "patent US20250145722A1",
  "about": "“ANTI-GAL3 ANTIBODIES AND METHODS OF USE” (TrueBinding, Inc., priority 2020, published 2025)",
  "biological_target": "T1, interaction of Gal3 and Abeta (1-42) oligomer (Homo sapiens, UniProt P17931)",
  "T1 construct": "His",
  "T1 sequence (P17931 2-250 limits assumed)": "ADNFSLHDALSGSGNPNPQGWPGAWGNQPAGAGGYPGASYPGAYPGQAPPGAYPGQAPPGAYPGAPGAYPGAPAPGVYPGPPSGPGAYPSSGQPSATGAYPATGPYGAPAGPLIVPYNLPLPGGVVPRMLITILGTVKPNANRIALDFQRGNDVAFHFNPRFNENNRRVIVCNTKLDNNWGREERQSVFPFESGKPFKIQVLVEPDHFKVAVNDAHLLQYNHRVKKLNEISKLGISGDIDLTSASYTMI",
  "assay": "Gal3-Abeta (1-42) oligomer blocking ELISA",
  "type": "binding",
  "settings": "at 10,000 nM",
  "procedure": "To identify Gal3-targeted antibodies with the ability to block the interaction of Gal3 and Abeta, purified Gal3 and Abeta (1-42) peptide and oligomer were incubated in the presence (or absence) of various Gal3-targeted or control antibodies, or without antibody, and protein interaction was evaluated by ELISA.\nThe plate was incubated for an hour at room temperature with gentle rocking. Thereafter, the plate was washed three times with PBST. […] The plate was incubated at room temperature for an hour with gentle rocking and then washed three times with PBST. […] Percent blockade of Gal3-Abeta (1-42) peptide or oligomer interaction was calculated as the fraction of signal obtained in the absence of antibody with the background signal subtracted.\nThe plate was incubated for an hour at room temperature with gentle rocking. Thereafter, the plate was washed three times with PBST. […] The plate was incubated at room temperature for an hour with gentle rocking and then washed three times with PBST. […] Percent blockade of Gal3-Abeta (1-42) oligomer interaction was calculated as the fraction of signal obtained in the absence of antibody or inhibitor with the background signal subtracted.",
  "data": [
    {"smiles": "OC[C@H]1O[C@@H](S[C@@H]2O[C@H](CO)[C@H](O)[C@H](n3cc(-c4cccc(F)c4)nn3)[C@H]2O)[C@H](O)[C@@H](n2cc(-c3cccc(F)c3)nn2)[C@H]1O", "note": "[TD139]", "values": [
      {"measurement": "Percent blockade of Gal3-Abeta (1-42) oligomer interaction", "result": "at most 19%"}
    ]}
  ]
}
